Laboratory results reported in article PMC11024869, “The activity of antimicrobial peptoids against multidrug-resistant ocular pathogens” (Contact lens & anterior eye : the journal of the British …, 2024).
≈ marks a conversion by molar mass, not a printed value. Where two headings read alike, the source gives them in different places. Non-standard residues stand in square brackets, D forms with d. Residues, ends and D or L forms follow the SMILES beside them. Nspe(4-Br) = C[C@H](NCC(=O)O)c1ccc(Br)cc1; Nspe = C[C@H](NCC(=O)O)c1ccccc1; NDecylGly = CCCCCCCCCCNCC(=O)O; Nlys = NCCCCNCC(=O)O

Legend:
Format in all cases: cell-based
[1] = test system: Pseudomonas aeruginosa PA233
Description: All S. aureus strains used were isolated from cases of microbial keratitis (Table 1) with various susceptibilities to antibiotics. The S. pneumoniae strains used were SP04, SP06 and SP07 [46] and Streptococcus gallolyticus SV06 (all isolated from eyes of contact lens wearers during adverse events); P. aeruginosa PAO1 (which was originally isolated from a wound, and is an invasive strain containing the gene exoS) as well as isolates from microbial keratitis, PA 235 (invasive strain containing exoS), PA216 (a cytotoxic strain containing exoU), PA219 (cytotoxic strain containing exoU), PA 233 (cytotoxic strain containing exoU), with various susceptibilities to antibiotics were also used. C. albicans ATCC 10231, a yeast, isolated from case of a human bronchomycosis, was also evaluated.
The peptoids’ minimum inhibitory and bactericidal concentrations (MIC and MBC) were determined using micro broth dilution methods as previously described with slight modifications, [26, 39, 49, 50], and without using acetic acid and bovine serum albumin [39]. Briefly, bacteria or yeast were suspended in Muller Hinton broth (MHB, Oxoid, Thermo Fisher Scientific, Thebarton, SA, Australia) at 0.1 OD660nm, which was equivalent to 1x10^8 colony forming units (CFU) mL^−1. This suspension was further diluted to achieve 5x10^6 CFU mL^−1. The peptoids were diluted in MHB from 250 to 0.24 μg mL^−1 in 96-well polystyrene microplates (COSTAR, Corning Incorporated, New York, NY, USA). This range was selected to cover the range of MIC values previously reported for ESKAPE pathogens. This was followed by addition of 100 μL of each microbial suspensions. Wells with only bacteria or the yeast were treated as a negative control, and wells with only MHB medium were treated as a blank. The plates were incubated at 37 °C with shaking at 120 rpm for 24 h. After incubation, the media in each well was serially diluted in phosphate buffered solution and then inoculated onto tryptone soya agar (Oxoid) plates for bacteria, or Sabouraud’s dextrose agar for the yeast, and incubated at 37 °C for 18 hrs. Post incubation, the number of CFUs on the agar plates was counted.

[2] = test system: Staphylococcus aureus SA113
Description: (§3) The S. pneumoniae strains used were SP04, SP06 and SP07 [46] and Streptococcus gallolyticus SV06 (all isolated from eyes of contact lens wearers during adverse events); P. aeruginosa PAO1 (which was originally isolated from a wound, and is an invasive strain containing the gene exoS) as well as isolates from microbial keratitis, PA 235 (invasive strain containing exoS), PA216 (a cytotoxic strain containing exoU), PA219 (cytotoxic strain containing exoU), PA 233 (cytotoxic strain containing exoU), with various susceptibilities to antibiotics were also used [14]. C. albicans ATCC 10231, a yeast, isolated from case of a human bronchomycosis, was also evaluated.
(§4) The peptoids’ minimum inhibitory and bactericidal concentrations (MIC and MBC) were determined using micro broth dilution methods as previously described with slight modifications, [26, 39, 49, 50], and without using acetic acid and bovine serum albumin [39]. Briefly, bacteria or yeast were suspended in Muller Hinton broth (MHB, Oxoid, Thermo Fisher Scientific, Thebarton, SA, Australia) at 0.1 OD660nm, which was equivalent to 1x10^8 colony forming units (CFU) mL^−1. This suspension was further diluted to achieve 5x10^6 CFU mL^−1. The peptoids were diluted in MHB from 250 to 0.24 μg mL^−1 in 96-well polystyrene microplates (COSTAR, Corning Incorporated, New York, NY, USA) [39]. […] This was followed by addition of 100 μL of each microbial suspensions. Wells with only bacteria or the yeast were treated as a negative control, and wells with only MHB medium were treated as a blank. The plates were incubated at 37 °C with shaking at 120 rpm for 24 h. After incubation, the media in each well was serially diluted in phosphate buffered solution and then inoculated onto tryptone soya agar (Oxoid) plates for bacteria, or Sabouraud’s dextrose agar for the yeast, and incubated at 37 °C for 18 hrs. Post incubation, the number of CFUs on the agar plates was counted.

[3] = test system: Staphylococcus aureus SA65
Description: as §3, §4

[4] = test system: Candida albicans ATCC 10231; test: MIC/MBC (fungicidal) micro broth dilution; conditions: ATCC 10231 (yeast), MHB, 24 h 37 °C; for MIC: ≥90 % reduction in CFUs; for MBC (minimum fungicidal concentration): ≥99.99 % reduction in CFUs
Description: as §3, §4

[5] = test system: Pseudomonas aeruginosa PAO1
Description: as §3, §4

[6] = test system: Staphylococcus aureus SA117
Description: as §3, §4

human erythrocytes = test: In vitro assay for hemolysis, human blood; conditions: for TI human blood (ratio HC50 to geometric mean MIC): therapeutic index
Protocol: (§1) Hemolysis caused by the peptoids was measured using 18 to 20 mL of a horse or human blood collected in EDTA-coated tubes which has been centrifuged at 500×g for 5 min. The supernatant was discarded and the pellet containing the cells were resuspended in PBS to a final volume of 20 mL. This step was repeated five times. After the final wash, the pellet was resuspended in PBS at the ratio of 1:10 (1 mL red blood cell: 9 mL PBS) to yield a final red blood cell (RBC) concentration of approximately 5 × 10^8 cells mL^−1. The concentration of RBCs was confirmed using a hemocytometer. The peptoids (stock concentration 2 mM) were diluted sequentially (two-fold dilutions) in PBS to final concentrations of […]. All the dilutions were subsequently mixed with the RBC suspension at the ratio of 1:1. MilliQ water was used as a positive control and PBS was used as a negative control in this assay. All samples were incubated at 37 °C for 3 h. Following incubation, the tubes were centrifuged at 500 x g for five mins, the supernatants were collected, transferred to wells in a 96 well plate and their optical density was measured at 540 nm. The percentage of hemolysis was calculated by dividing the absorbance of the test sample by the absorbance of the positive control, and multiplying by 100. Data are presented as the hemolysis caused by each dilution of peptoid, and as the concentration of peptoid that caused 10 % or 50 % lysis of red blood cells.
(§2) The geometric mean is the nth root of the multiplied numbers, where n is the total number of data values. A similar formula was used to calculate the selectivity ratio, but by using the concentration of peptoid that caused 10 % hemolysis.

[7] = test system: Streptococcus pneumoniae SP06
Description: as §3, §4

[8] = test system: Streptococcus pneumoniae SP04
Description: as §3, §4

[9] = test system: viridans group streptococcus SV06
Description: as §3, §4

[10] = test system: Staphylococcus aureus SA34
Description: as §3, §4

[11] = test system: Pseudomonas aeruginosa PA219
Description: as §3, §4

[12] = test system: Streptococcus pneumoniae SP07
Description: as §3, §4

[13] = test system: Pseudomonas aeruginosa PA216
Description: as §3, §4

[14] = test system: Streptococcus gallolyticus SG04
Description: as §3, §4

[15] = test system: Pseudomonas aeruginosa PA235
Description: as §3, §4

horse erythrocytes = test: In vitro assay for hemolysis, horse blood; conditions: for TI horse blood (ratio HC50 to geometric mean MIC): therapeutic index
Protocol: as §1, §2

[16] = test system: Staphylococcus aureus SA114
Description: as §3, §4

## CCCCCCCCCCNCC(=O)N(CCCCN)CC(=O)N(CC(=O)N(CC(=O)N(CCCCN)CC(=O)N(CC(=O)N(CC(=O)N(CCCCN)CC(N)=O)[C@@H](C)c1ccccc1)[C@@H](C)c1ccccc1)[C@@H](C)c1ccccc1)[C@@H](C)c1ccccc1 [TM18] (H-[NDecylGly][Nlys][Nspe][Nspe][Nlys][Nspe][Nspe][Nlys]-NH2)
[1]; PA233, MHB, 24 h 37 °C, ≥90 % reduction in CFUs
  MIC: 15 µg/mL (≈ 12.1 µM)
[1]; PA233, MHB, 24 h 37 °C, ≥99.99 % reduction in CFUs
  MBC: 31 µg/mL (≈ 24.9 µM)
[2]; SA113, MHB, 24 h 37 °C, ≥90 % reduction in CFUs
  MIC: 1.9 µg/mL (≈ 1.53 µM)
[2]; SA113, MHB, 24 h 37 °C, ≥99.99 % reduction in CFUs
  MBC: 1.95 µg/mL (≈ 1.57 µM)
[3]; SA65, MHB, 24 h 37 °C, ≥90 % reduction in CFUs
  MIC: 3.9(3.1)/3.9(3.1) μg mL^−1
[3]; SA65, MHB, 24 h 37 °C, ≥99.99 % reduction in CFUs
  MBC: 3.9(3.1)/3.9(3.1) μg mL^−1
[4]
  MIC: 3.9(3.1)/3.9(3.1) μg mL^−1
  MBC (minimum fungicidal concentration): 3.9(3.1)/3.9(3.1) μg mL^−1
[5]; PAO1, MHB, 5x10^6 CFU mL^−1, 24 h 37 °C, ≥90 % reduction in CFUs
  MIC: 15 µg/mL (≈ 12.1 µM)
[5]; PAO1, MHB, 24 h 37 °C, ≥99.99 % reduction in CFUs
  MBC: 31 µg/mL (≈ 24.9 µM)
[6]; SA117, MHB, 24 h 37 °C, ≥90 % reduction in CFUs
  MIC: 3.9(3.1)/3.9(3.1) μg mL^−1
[6]; SA117, MHB, 24 h 37 °C, ≥99.99 % reduction in CFUs
  MBC: 3.9(3.1)/3.9(3.1) μg mL^−1
Human erythrocytes; concentration causing 10 % lysis of human red blood cells, PBS, 3 h 37 °C, OD 540 nm
  Human HC10: 5 µM
Human erythrocytes; concentration causing 50 % lysis of human red blood cells, PBS, 3 h 37 °C, OD 540 nm
  Human HC50: 225 µM
Human erythrocytes; selectivity ratio
  SR human blood (ratio HC10 to geometric mean MIC): 1
Human erythrocytes
  TI human blood (ratio HC50 to geometric mean MIC): 45
[7]; SP06, MHB, 24 h 37 °C, ≥90 % reduction in CFUs
  MIC: 1.9(1.6)/1.9(1.6) μg mL^−1
[7]; SP06, MHB, 24 h 37 °C, ≥99.99 % reduction in CFUs
  MBC: 1.9(1.6)/1.9(1.6) μg mL^−1
[8]; SP04, MHB, 24 h 37 °C, ≥90 % reduction in CFUs
  MIC: 15(12)/15(12) μg mL^−1
[8]; SP04, MHB, 24 h 37 °C, ≥99.99 % reduction in CFUs
  MBC: 15(12)/15(12) μg mL^−1
[9]; SV06, MHB, 24 h 37 °C, ≥90 % reduction in CFUs
  MIC: 15(12)/15(12) μg mL^−1
[9]; SV06, MHB, 24 h 37 °C, ≥99.99 % reduction in CFUs
  MBC: 15(12)/15(12) μg mL^−1
[10]; SA34, MHB, 24 h 37 °C, ≥90 % reduction in CFUs
  MIC: 7.8(6.3)/7.8(6.3) μg mL^−1
[10]; SA34, MHB, 24 h 37 °C, ≥99.99 % reduction in CFUs
  MBC: 7.8(6.3)/7.8(6.3) μg mL^−1
[11]; PA219, MHB, 24 h 37 °C, ≥90 % reduction in CFUs
  MIC: 15 µg/mL (≈ 12.1 µM)
[11]; PA219, MHB, 24 h 37 °C, ≥99.99 % reduction in CFUs
  MBC: 31 µg/mL (≈ 24.9 µM)
[12]; SP07, MHB, 24 h 37 °C, ≥90 % reduction in CFUs
  MIC: 15(12)/15(12) μg mL^−1
[12]; SP07, MHB, 24 h 37 °C, ≥99.99 % reduction in CFUs
  MBC: 15(12)/15(12) μg mL^−1
[13]; PA216, MHB, 24 h 37 °C, ≥90 % reduction in CFUs
  MIC: 15(12)/15(12) μg mL^−1
[13]; PA216, MHB, 24 h 37 °C, ≥99.99 % reduction in CFUs
  MBC: 15(12)/15(12) μg mL^−1
[14]; SG04, MHB, 24 h 37 °C, ≥90 % reduction in CFUs
  MIC: 15(12)/1512) μg mL^−1
[14]; SG04, MHB, 24 h 37 °C, ≥99.99 % reduction in CFUs
  MBC: 15(12)/1512) μg mL^−1
[15]; PA235, MHB, 24 h 37 °C, ≥90 % reduction in CFUs
  MIC: 7.8 µg/mL (≈ 6.27 µM)
[15]; PA235, MHB, 24 h 37 °C, ≥99.99 % reduction in CFUs
  MBC: 15 µg/mL (≈ 12.1 µM)
Horse erythrocytes; concentration causing 10 % lysis of horse red blood cells, PBS, 3 h 37 °C, OD 540 nm
  Horse HC10: 3 µM
Horse erythrocytes; concentration causing 50 % lysis of horse red blood cells, PBS, 3 h 37 °C, OD 540 nm
  Horse HC50: 110 µM
Horse erythrocytes; selectivity ratio
  SR horse blood (ratio HC10 to geometric mean MIC): 0.6
Horse erythrocytes
  TI horse blood (ratio HC50 to geometric mean MIC): 22
[16]; SA114, MHB, 24 h 37 °C, ≥90 % reduction in CFUs
  MIC: 3.9(3.1)/3.9(3.1) μg mL^−1
[16]; SA114, MHB, 24 h 37 °C, ≥99.99 % reduction in CFUs
  MBC: 3.9(3.1)/3.9(3.1) μg mL^−1

## C[C@@H](c1ccc(Br)cc1)N(CC(=O)N(CCCCN)CC(=O)N(CC(=O)N(CC(=O)N(CCCCN)CC(N)=O)[C@@H](C)c1ccc(Br)cc1)[C@@H](C)c1ccc(Br)cc1)C(=O)CN(C(=O)CNCCCCN)[C@@H](C)c1ccc(Br)cc1 [TM14] (H-[Nlys][Nspe(4-Br)][Nspe(4-Br)][Nlys][Nspe(4-Br)][Nspe(4-Br)][Nlys]-NH2)
[1]; PA233, 24 h
  MBC: 31 µg/mL (≈ 22.8 µM)
  MIC: 15 µg/mL (≈ 11 µM)
[2]; SA113, 24 h
  MBC: 3.9 µg/mL (≈ 2.86 µM)
  MIC: 1.9 µg/mL (≈ 1.4 µM)
[3]; SA65, 24 h
  MBC: 1.9(1.4)/1.9(1.4) μg mL^−1
  MIC: 1.9(1.4)/1.9(1.4) μg mL^−1
[4]
  MIC: 3.9(2.8)/3.9(2.8) μg mL^−1
  MBC (minimum fungicidal concentration): 3.9(2.8)/3.9(2.8) μg mL^−1
[5]; PAO1, 24 h
  MBC: 15 µg/mL (≈ 11 µM)
  MIC: 7.8 µg/mL (≈ 5.73 µM)
[6]; SA117, 24 h
  MBC: 3.9(2.9)/3.9(2.9) μg mL^−1
  MIC: 3.9(2.9)/3.9(2.9) μg mL^−1
Human erythrocytes
  SR human blood (ratio HC10 to geometric mean MIC): 2
  TI human blood (ratio HC50 to geometric mean MIC): 23
Human erythrocytes; red cells of human, 3 h
  Human HC10: 8 µM
  Human HC50: 90 µM
[7]; SP06, 24 h
  MBC: 1.9(1.4)/1.9(1.4) μg mL^−1
  MIC: 1.9(1.4)/1.9(1.4) μg mL^−1
[8]; SP04, 24 h
  MBC: 15(11)/15(15) μg mL^−1
  MIC: 15(11)/15(15) μg mL^−1
[9]; 24 h
  MBC: 15(11)/15(11) μg mL^−1
  MIC: 15(11)/15(11) μg mL^−1
[10]; SA34, 24 h
  MBC: 3.9(2.9)/3.9(2.9) μg mL^−1
  MIC: 3.9(2.9)/3.9(2.9) μg mL^−1
[11]; PA219, 24 h
  MBC: 15(11)/15(11) μg mL^−1
  MIC: 15(11)/15(11) μg mL^−1
[12]; SP07, 24 h
  MBC: 15(11)/15(11) μg mL^−1
  MIC: 15(11)/15(11) μg mL^−1
[13]; PA216, 24 h
  MBC: 15 µg/mL (≈ 11 µM)
  MIC: 7.8 µg/mL (≈ 5.73 µM)
[14]; 24 h
  MBC: 15(11)/15(11) μg mL^−1
  MIC: 15(11)/15(11) μg mL^−1
[15]; PA235, 24 h
  MBC: 31 µg/mL (≈ 22.8 µM)
  MIC: 15 µg/mL (≈ 11 µM)
Horse erythrocytes
  SR horse blood (ratio HC10 to geometric mean MIC): 0.8
  TI horse blood (ratio HC50 to geometric mean MIC): 11
Horse erythrocytes; red cells of horse, 3 h
  Horse HC10: 3 µM
  Horse HC50: 45 µM
[16]; SA114, 24 h
  MBC: 1.9(1.4)/1.9(1.4) μg mL^−1
  MIC: 1.9(1.4)/1.9(1.4) μg mL^−1
